Assay results published in US8916702B2 (priority 2012, dated 2014).

tested on: HCV pseudoparticles (genotype 1a HCV E1 and E2 envelope, H77C isolate); assay: microbe, parasite or virus in culture; assay type: cell-based; conditions: Hepatitis C virus, Huh-7, 48 h, HCV pseudoparticles (genotype 1a, H77C) in Huh7 cells; average of duplicate; luciferase 2 days after infection

Compound	EC50
O=C(NCC(O)CNC(=O)c1ccc(Nc2nc(NC3(c4ccc(Cl)cc4)CC3)nc(OCC(F)(F)F)n2)cc1)C(=O)Nc1cc(F)cc(F)c1 (stereo not shown) [Compound 3461]	0.027 nM
O=C(NCCNC(=O)c1ccc(Nc2nc(NC3(c4ccc(Cl)cc4)CC3)nc(OCC(F)(F)F)n2)cc1)C(=O)Nc1ccc(F)cc1 [Compound 3373]	0.052 nM
COC(=O)[C@@H](CCNC(=O)C(=O)Nc1ccc(Oc2cccnc2)nc1)NC(=O)c1ccc(Nc2nc(NC3(c4ccc(Cl)cc4)CC3)nc(OCC(F)(F)F)n2)cc1 [Compound 3582]	8.95 nM

same assay, conditions: Hepatitis C virus, Huh-7, 48 h, HCV pseudoparticles, Huh7 cells, luciferase 2 days after infection; average of duplicates

Compound	EC50
CC(O)(CNC(=O)C(N)=O)CNC(=O)c1ccc(Nc2nc(NC3(c4ccc(Cl)cc4)CC3)nc(OCC(F)(F)F)n2)cc1 (stereo not shown) [Compound 3834]	0.086 nM
O=C(NC[C@H](NC(=O)c1ccc(Nc2nc(NC3(c4ccc(Cl)cc4)CC3)nc(OCC(F)(F)F)n2)cc1)C(=O)O)C(=O)Nc1cccc(S(=O)(=O)N2CCCCC2)c1 [Compound 3772]	7.42 nM

same assay, conditions: Hepatitis C virus, Huh-7, 48 h, read-out: Activity (EC50 class), HCV pseudoparticle infection of Huh7 cells, luciferase 2 days after infection; EC50 expressed as class A/B

Compound	EC50
Cc1ccc(NC(=O)C(=O)NCC2(CNC(=O)c3ccc(Nc4nc(NC5(c6ccc(Cl)cc6)CC5)nc(OCC(F)(F)F)n4)cc3)CC2)cc1 [Compound 1600]	0.01 to 10 nM
CCOC(=O)C(=O)NC[C@H](NC(=O)c1ccc(Nc2nc(NC3(c4ccc(Cl)cc4)CC3)nc(OCC(F)(F)F)n2)cc1)C(=O)OC [Compound 1001, (S)-methyl 2-(4-(4-(1-(4-chlorophenyl)cyclopropylamino)-6-(2,2,2-trifluoroethoxy)-1,3,5-triazin-2-ylamino)benzamido)-3-(2-ethoxy-2-oxoacetamido)propanoate]	10 to 1000 nM
O=C(NCC[C@H](NC(=O)c1ccc(Nc2nc(NC3(c4ccc(Cl)cc4)CC3)nc(OCC(F)(F)F)n2)cc1)C(=O)O)C(=O)NCC1(CO)CC1 [Compound 1424]	0.01 to 10 nM
COc1ccc(NC(=O)C(=O)NCC[C@H](NC(=O)c2ccc(Nc3nc(NC4(c5ccc(Cl)cc5)CC4)nc(OCC(F)(F)F)n3)cc2)C(=O)O)cn1 [Compound 1262]	0.01 to 10 nM
CN1CCN(CC2(CNC(=O)C(=O)NCC[C@H](NC(=O)c3ccc(Nc4nc(NC5(c6ccc(Cl)cc6)CC5)nc(OCC(F)(F)F)n4)cc3)C(=O)O)CC2)CC1 [Compound 1432]	0.01 to 10 nM
COC(=O)[C@H](CCNC(=O)C(=O)NCc1cc(F)ccc1F)NC(=O)c1ccc(Nc2nc(NC3(c4ccc(Cl)cc4)CC3)nc(OCC(F)(F)F)n2)cc1 [Compound 1157]	0.01 to 10 nM
CC(C)OC(=O)c1ccc(-c2ccc(NC(=O)C(=O)NCC(C)(C)CNC(=O)c3ccc(Nc4nc(NC5(c6ccc(Cl)cc6)CC5)nc(OCC(F)(F)F)n4)cc3)cc2)cc1 [Compound 1488]	0.01 to 10 nM
COC(=O)[C@H](CCNC(=O)C(=O)Nc1nccn1C)NC(=O)c1ccc(Nc2nc(NC3(c4ccc(Cl)cc4)CC3)nc(OCC(F)(F)F)n2)cc1 [Compound 1222]	0.01 to 10 nM
COC(=O)[C@H](CCNC(=O)C(=O)N[C@H]1C[C@H]2C3C2[C@]31C)NC(=O)c1ccc(Nc2nc(NC3(c4ccc(Cl)cc4)CC3)nc(OCC(F)(F)F)n2)cc1 (stereo partly shown) [Compound 1100]	0.01 to 10 nM
CC(C)(CNC(=O)C(=O)Nc1ccc(F)c(F)c1)CNC(=O)c1ccc(Nc2nc(NC3(c4ccc(Cl)cc4)CC3)nc(OCC(F)(F)F)n2)cc1 [Compound 1556]	0.01 to 10 nM
COC(=O)[C@H](CNC(=O)C(=O)NCCc1cccc(F)c1)NC(=O)c1ccc(Nc2nc(NC3(c4ccc(Cl)cc4)CC3)nc(OCC(F)(F)F)n2)cc1 [Compound 1289]	0.01 to 10 nM
COC(=O)[C@H](CCNC(=O)C(=O)Nc1ccn(C)n1)NC(=O)c1ccc(Nc2nc(NC3(c4ccc(Cl)cc4)CC3)nc(OCC(F)(F)F)n2)cc1 [Compound 1221]	0.01 to 10 nM
O=C(NCc1ccc(F)cc1F)C(=O)NC[C@H](NC(=O)c1ccc(Nc2nc(NC3(c4ccc(Cl)cc4)CC3)nc(OCC(F)(F)F)n2)cc1)C(=O)O [Compound 1168]	0.01 to 10 nM
COC(=O)[C@H](CCNC(=O)C(=O)NCc1ccc(OC)c(OC)c1)NC(=O)c1ccc(Nc2nc(NC3(c4ccc(Cl)cc4)CC3)nc(OCC(F)(F)F)n2)cc1 [Compound 1144]	0.01 to 10 nM
CN1CCCC1CCNC(=O)C(=O)NC[C@H](NC(=O)c1ccc(Nc2nc(NC3(c4ccc(Cl)cc4)CC3)nc(OCC(F)(F)F)n2)cc1)C(=O)O (stereo partly shown) [Compound 1040]	10 to 1000 nM
CC(C)(CNC(=O)C(=O)Nc1ccc(C2CCCCC2)cc1)CNC(=O)c1ccc(Nc2nc(NC3(c4ccc(Cl)cc4)CC3)nc(OCC(F)(F)F)n2)cc1 [Compound 1584]	0.01 to 10 nM

same assay, conditions: Hepatitis C virus, Huh-7, 48 h, read-out: Activity (EC50 class), HCV pseudoparticles, Huh7 cells, luciferase 2 days after infection; average of duplicates

Compound	EC50
O=C(NC[C@H](NC(=O)c1ccc(Nc2nc(NC3(c4ccc(Cl)cc4)CC3)nc(OCC(F)(F)F)n2)cc1)C(=O)Cl)C(=O)Nc1cccc(-c2cccnc2)c1 [Compound 3783]	0.01 to 10 nM
Cc1ccc(NC(=O)C(=O)NCC(C)(C)CNC(=O)c2ccc(Nc3nc(NC4(c5ccc(Cl)cc5)CC4)nc(OCc4ccc(Cl)cc4)n3)cc2)cc1 [Compound 3849]	0.01 to 10 nM
O=C(NCC[C@H](NC(=O)c1ccc(Nc2nc(NC3(c4ccc(Cl)cc4)CC3)nc(OCC(F)(F)F)n2)cc1)C(=O)O)C(=O)Nc1cccc(Cc2ccccn2)c1 [Compound 3650]	0.01 to 10 nM
COC(=O)[C@H](CNC(=O)C(=O)Nc1cccc(-c2nnnn2C)c1)NC(=O)c1ccc(Nc2nc(NC3(c4ccc(Cl)cc4)CC3)nc(OCC(F)(F)F)n2)cc1 [Compound 3731]	0.01 to 10 nM
O=C(NCC[C@H](NC(=O)c1ccc(Nc2nc(NC3(c4ccc(Cl)cc4)CC3)nc(OCC(F)(F)F)n2)cc1)C(=O)O)C(=O)Nc1cccc(Cc2ccccc2)c1 [Compound 3639]	0.01 to 10 nM
COC(=O)[C@H](CNC(=O)C(=O)Nc1ccc(Cl)nc1)NC(=O)c1ccc(Nc2nc(NC3(c4ccc(Cl)cc4)CC3)nc(OCC(F)(F)F)n2)cc1 [Compound 3683]	0.01 to 10 nM
CC(C)(CNC(=O)C(=O)Nc1nc2ccc(S(N)(=O)=O)cc2s1)CNC(=O)c1ccc(Nc2nc(NC3(c4ccc(Cl)cc4)CC3)nc(OCC(F)(F)F)n2)cc1 [Compound 3825]	0.01 to 10 nM
COC(=O)[C@H](CNC(=O)C(=O)Nc1cccc(OC(F)F)c1)NC(=O)c1ccc(Nc2nc(NC3(c4ccc(Cl)cc4)CC3)nc(OCC(F)(F)F)n2)cc1 [Compound 3708]	0.01 to 10 nM
CC(O)(CNC(=O)C(N)=O)CNC(=O)c1ccc(Nc2nc(NC3(c4ccc(Cl)cc4)CC3)nc(OCC(F)(F)F)n2)cc1 (stereo not shown) [Compound 3834]	0.01 to 10 nM
O=C(NC[C@H](NC(=O)c1ccc(Nc2nc(NC3(c4ccc(Cl)cc4)CC3)nc(OCC(F)(F)F)n2)cc1)C(=O)O)C(=O)Nc1cccc(S(=O)(=O)N2CCCCC2)c1 [Compound 3772]	0.01 to 10 nM
COC(=O)[C@H](CCNC(=O)C(=O)Nc1cccc(-c2c[nH]cn2)c1)NC(=O)c1ccc(Nc2nc(NC3(c4ccc(Cl)cc4)CC3)nc(OCC(F)(F)F)n2)cc1 [Compound 3608]	0.01 to 10 nM

same assay, conditions: Hepatitis C virus, Huh-7, read-out: Activity (EC50 class), HCV pseudoparticles (genotype 1a, H77C) in Huh7 cells; EC50 expressed as class A/B

Compound	EC50
O=C(NCC(O)CNC(=O)c1ccc(Nc2nc(NC3(c4ccc(Cl)cc4)CC3)nc(OCC(F)(F)F)n2)cc1)C(=O)Nc1cc(F)cc(F)c1 (stereo not shown) [Compound 3461]	0.01 to 10 nM
O=C(Cc1ccc(F)cc1F)C(=O)NCC(O)CNC(=O)c1ccc(Nc2nc(NC3(c4ccc(Cl)cc4)CC3)nc(OCC(F)(F)F)n2)cc1 (stereo not shown) [Compound 3459]	0.01 to 10 nM
COC(=O)[C@H](CNC(=O)C(=O)Nc1ccc(C(=O)N2CCOCC2)cc1)NC(=O)c1ccc(Nc2nc(NC3(c4ccc(Cl)cc4)CC3)nc(OCC(F)(F)F)n2)cc1 [Compound 3099]	0.01 to 10 nM
COC(=O)[C@@H](CCNC(=O)C(=O)Nc1ccc(Cl)nc1)NC(=O)c1ccc(Nc2nc(NC3(c4ccc(Cl)cc4)CC3)nc(OCC(F)(F)F)n2)cc1 [Compound 3570]	0.01 to 10 nM
NC(=O)c1ccc(NC(=O)C(=O)NC/C(=N/C(=O)c2ccc(Nc3nc(NC4(c5ccc(Cl)cc5)CC4)nc(OCC(F)(F)F)n3)cc2)C(=O)O)cc1 [Compound 3156]	0.01 to 10 nM
CC(C)(CNC(=O)C(=O)Nc1ccccc1C(=O)N1CCCCC1)CNC(=O)c1ccc(Nc2nc(NC3(c4ccc(Cl)cc4)CC3)nc(OCC(F)(F)F)n2)cc1 [Compound 3063]	0.01 to 10 nM
COC(=O)[C@H](CCNC(=O)C(=O)Nc1ccc(Oc2cccnc2)cc1)NC(=O)c1ccc(Nc2nc(NC3(c4ccc(Cl)cc4)CC3)nc(OCC(F)(F)F)n2)cc1 [Compound 3324]	0.01 to 10 nM
Cn1cnc(NC(=O)C(=O)NCC(C)(C)CNC(=O)c2ccc(Nc3nc(NC4(c5ccc(Cl)cc5)CC4)nc(OCC(F)(F)F)n3)cc2)c1 [Compound 3178]	0.01 to 10 nM
COC(=O)/C(CCNC(=O)C(=O)Nc1cccc(S(C)(=O)=O)c1)=N\C(=O)c1ccc(Nc2nc(NC3(c4ccc(Cl)cc4)CC3)nc(OCC(F)(F)F)n2)cc1 [Compound 3588]	0.01 to 10 nM
CC(C)(CNC(=O)C(=O)Nc1ccc(Cl)cc1C(N)=O)CNC(=O)c1ccc(Nc2nc(NC3(c4ccc(Cl)cc4)CC3)nc(OCC(F)(F)F)n2)cc1 [Compound 3110]	0.01 to 10 nM
COC(=O)c1cccc(-c2ccccc2NC(=O)C(=O)NCC(C)(C)CNC(=O)c2ccc(Nc3nc(NC4(c5ccc(Cl)cc5)CC4)nc(OCC(F)(F)F)n3)cc2)c1 [Compound 3045]	0.01 to 10 nM
COC(=O)/C(CCNC(=O)C(=O)Nc1cccc(Cc2ccccc2)c1)=N\C(=O)c1ccc(Nc2nc(NC3(c4ccc(Cl)cc4)CC3)nc(OCC(F)(F)F)n2)cc1 [Compound 3592]	10 to 1000 nM
COc1ccccc1NC(=O)C(=O)NCC(C)(C)CNC(=O)c1ccc(Nc2nc(NC3(c4ccc(Cl)cc4)CC3)nc(OCC(F)(F)F)n2)cc1 [Compound 3006]	0.01 to 10 nM
O=C(NCC1(CNC(=O)c2ccc(Nc3nc(NC4(c5ccc(Cl)cc5)CC4)nc(OCC(F)(F)F)n3)cc2)CC1)C(=O)Nc1cccc(F)c1 [Compound 3001]	0.01 to 10 nM
Cc1cc(F)ccc1NC(=O)C(=O)NCC(C)(C)CNC(=O)c1ccc(Nc2nc(NC3(c4ccc(Cl)cc4)CC3)nc(OCC(F)(F)F)n2)cc1 [Compound 3061]	0.01 to 10 nM
COc1ccc(NC(=O)C(=O)NCC(C)(C)CNC(=O)c2ccc(Nc3nc(NC4(c5ccc(Cl)cc5)CC4)nc(OCC(F)(F)F)n3)cc2)c(OC)c1 [Compound 3067]	0.01 to 10 nM
CC(C)(CNC(=O)C(=O)Nc1ccc(/C=C/c2ccccc2)cc1)CNC(=O)c1ccc(Nc2nc(NC3(c4ccc(Cl)cc4)CC3)nc(OCC(F)(F)F)n2)cc1 [Compound 3143]	0.01 to 10 nM
O=C(NCc1ccc(F)cc1)C(=O)N1CCCC(CNC(=O)c2ccc(Nc3nc(NC4(c5ccc(Cl)cc5)CC4)nc(OCC(F)(F)F)n3)cc2)C1 (stereo not shown) [Compound 3483]	0.01 to 10 nM
O=C(NCCNC(=O)c1ccc(Nc2nc(NC3(c4ccc(Cl)cc4)CC3)nc(OCC(F)(F)F)n2)cc1)C(=O)Nc1ccc(F)cc1 [Compound 3373]	0.01 to 10 nM
COC(=O)[C@@H](CCNC(=O)C(=O)Nc1ccc(Oc2cccnc2)nc1)NC(=O)c1ccc(Nc2nc(NC3(c4ccc(Cl)cc4)CC3)nc(OCC(F)(F)F)n2)cc1 [Compound 3582]	0.01 to 10 nM
